Numbers after ± are expanded uncertainties.
Assay: mn = molality of the nth substance listed, in mol/kg
Conditions: 350 kPa, Liquid

O=[N+]([O-])[O-].O=[N+]([O-])[O-].[Mg+2] [magnesium nitrate] + O
mass density [kg/m3]
Conditions	m1 = 0.0228	m1 = 0.0567	m1 = 0.1086	m1 = 0.2145	m1 = 0.3197	m1 = 0.4749	m1 = 0.6211	m1 = 0.811	m1 = 1	m1 = 1.014
278.15 K	1002.6 ± 0.14	1006.37 ± 0.14	1012.2 ± 0.14	1023.83 ± 0.15	1035.31 ± 0.16	1051.77 ± 0.17	1066.82 ± 0.18	1086.01 ± 0.2	1104.79 ± 0.21	1106.04 ± 0.21
283.15 K	1002.29 ± 0.14	1005.98 ± 0.14	1011.77 ± 0.14	1023.21 ± 0.15	1034.48 ± 0.16	1050.8 ± 0.17	1065.63 ± 0.18	1084.59 ± 0.2	1103.2 ± 0.21	1104.4 ± 0.21
288.15 K	1001.64 ± 0.14	1005.28 ± 0.14	1011.01 ± 0.14	1022.29 ± 0.15	1033.42 ± 0.16	1049.55 ± 0.17	1064.22 ± 0.18	1082.99 ± 0.19	1101.41 ± 0.21	1102.61 ± 0.2
298.15 K	999.48 ± 0.14	1003.07 ± 0.14	1008.68 ± 0.14	1019.73 ± 0.15	1030.65 ± 0.15	1046.49 ± 0.16	1060.93 ± 0.17	1079.39 ± 0.19	1097.46 ± 0.21	1098.71 ± 0.2
308.15 K	996.42 ± 0.14	999.96 ± 0.13	1005.49 ± 0.14	1016.39 ± 0.14	1027.14 ± 0.15	1042.74 ± 0.16	1056.98 ± 0.17	1075.19 ± 0.19	1093.03 ± 0.2	1094.27 ± 0.2
318.15 K	992.59 ± 0.14	996.09 ± 0.14	1001.54 ± 0.13	1012.32 ± 0.14	1022.97 ± 0.15	1038.38 ± 0.16	1052.47 ± 0.17	1070.47 ± 0.18	1088.14 ± 0.2	1089.36 ± 0.19
328.15 K	988.06 ± 0.14	991.53 ± 0.14	996.93 ± 0.13	1007.61 ± 0.14	1018.17 ± 0.14	1033.44 ± 0.15	1047.38 ± 0.16	1065.25 ± 0.18	1082.78 ± 0.19	1083.97 ± 0.19
338.15 K	982.92 ± 0.15	986.36 ± 0.14	991.75 ± 0.14	1002.35 ± 0.13	1012.86 ± 0.14	1027.99 ± 0.15	1041.88 ± 0.16	1059.64 ± 0.17	1077.04 ± 0.19	1078.2 ± 0.18
348.15 K	977.2 ± 0.15	980.38 ± 0.14	985.71 ± 0.14	996.29 ± 0.14	1007.11 ± 0.14	1022.17 ± 0.14	1035.94 ± 0.15	1053.67 ± 0.17	1071 ± 0.17	1071.85 ± 0.17
358.15 K	970.99 ± 0.16	974.49 ± 0.15	979.87 ± 0.15	990.4 ± 0.14	1000.85 ± 0.13	1015.92 ± 0.14	1029.76 ± 0.15	1047.38 ± 0.16	1064.73 ± 0.18	1065.89 ± 0.17
368.15 K	964.33 ± 0.16	967.8 ± 0.16	973.17 ± 0.15	983.77 ± 0.14	994.23 ± 0.14	1009.33 ± 0.14	1023.17 ± 0.15	1040.85 ± 0.16	1058.19 ± 0.17	1059.34 ± 0.17

Source: the NIST ThermoML archive (doi:10.1016/j.jct.2006.09.008)
